Source: patent publication US8420675B2, “Aminotetrahydroindazoloacetic acids” (Hoffmann-La Roche Inc., priority 2008, dated 2013)

Biological target: T1, human CRTH2 (Homo sapiens, UniProt Q9Y5Y4)
T1 construct: expressed in transfected cells
T1 sequence (Q9Y5Y4 1-395): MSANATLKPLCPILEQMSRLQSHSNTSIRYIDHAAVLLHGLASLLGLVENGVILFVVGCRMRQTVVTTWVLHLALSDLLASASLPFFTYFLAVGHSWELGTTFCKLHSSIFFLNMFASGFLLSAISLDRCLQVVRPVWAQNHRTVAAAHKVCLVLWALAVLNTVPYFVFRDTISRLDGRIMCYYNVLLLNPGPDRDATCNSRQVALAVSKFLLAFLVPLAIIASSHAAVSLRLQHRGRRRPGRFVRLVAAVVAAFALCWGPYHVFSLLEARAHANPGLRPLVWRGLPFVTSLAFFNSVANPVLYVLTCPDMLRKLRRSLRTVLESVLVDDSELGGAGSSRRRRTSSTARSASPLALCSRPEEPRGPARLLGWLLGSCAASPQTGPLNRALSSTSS
Test: Human CRTH2 Receptor Binding Assay (whole cell, [3H]ramatroban competition)
Details: CHO-K1 cells expressing human CRTH2 and G-alpha16; 20 nM [3H]ramatroban; 1 hour, room temperature
Method in brief: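 CHO-K1 cells stably co-expressing human CRTH2 and G-alpha16, 1.5×10^5 per reaction, incubated 1 hour at room temperature with 20 nM [3H]ramatroban in PBS containing 10 mM MgCl2 and 0.06% BSA. Non-specific binding defined with 10 μM 15(R)-15-methyl PGD2. IC50 from 7 concentrations by 4-parameter logistic fit of specific binding inhibition.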

SMILES | IC50 [nM]
O=C(O)Cn1ncc2c1CCCC2NS(=O)(=O)c1cc(-c2ccccc2)cc(C(F)(F)F)c1 (centres unmarked) [Example 10-16a, [4-(5-Trifluoromethyl-biphenyl-3-sulfonylamino)-4,5,6,7-tetrahydro-indazol-1-yl]-acetic acid] | 66.1
O=C(O)Cn1ncc2c1CCCC2NS(=O)(=O)c1ccc(-c2ccccc2C(F)(F)F)cc1 (centres unmarked) [Example 10-17a, [4-(2′-Trifluoromethyl-biphenyl-4-sulfonylamino)-4,5,6,7-tetrahydro-indazol-1-yl]-acetic acid] | 262
Cc1cc(C)cc(-c2ccc(S(=O)(=O)NC3CCCc4c3cnn4CC(=O)O)cc2)c1 (centres unmarked) [Example 10-18a, [4-(3′,5′-Dimethyl-biphenyl-4-sulfonylamino)-4,5,6,7-tetrahydro-indazol-1-yl]-acetic acid] | 188
O=C(O)Cn1ncc2c1CCCC2NS(=O)(=O)c1ccc(-c2cccc(O)c2)cc1 (centres unmarked) [Example 10-19a, [4-(3′-Hydroxy-biphenyl-4-sulfonylamino)-4,5,6,7-tetrahydro-indazol-1-yl]-acetic acid] | 267
CCOc1cccc(-c2ccc(S(=O)(=O)NC3CCCc4c3cnn4CC(=O)O)cc2)c1 (centres unmarked) [Example 10-20a, [4-(3′-Ethoxy-biphenyl-4-sulfonylamino)-4,5,6,7-tetrahydro-indazol-1-yl]-acetic acid] | 272
CC(C)Oc1cccc(-c2ccc(S(=O)(=O)NC3CCCc4c3cnn4CC(=O)O)cc2)c1 (centres unmarked) [Example 10-21a, [4-(3′-Isopropoxy-biphenyl-4-sulfonylamino)-4,5,6,7-tetrahydro-indazol-1-yl]-acetic acid] | 120
CC(=O)c1cccc(-c2ccc(S(=O)(=O)NC3CCCc4c3cnn4CC(=O)O)cc2)c1 (centres unmarked) [Example 10-22a, [4-(3′-Acetyl-biphenyl-4-sulfonylamino)-4,5,6,7-tetrahydro-indazol-1-yl]-acetic acid] | 152
O=C(O)Cn1ncc2c1CCCC2NS(=O)(=O)c1ccc(-c2cccc([N+](=O)[O-])c2)cc1 (centres unmarked) [Example 10-23a, [4-(3′-Nitro-biphenyl-4-sulfonylamino)-4,5,6,7-tetrahydro-indazol-1-yl]-acetic acid] | 238
O=C(O)Cn1ncc2c1CCCC2NS(=O)(=O)c1ccc(-c2cc(C(F)(F)F)cc(C(F)(F)F)c2)cc1 (centres unmarked) [Example 10-24a, [4-(3′,5′-Bis-trifluoromethyl-biphenyl-4-sulfonylamino)-4,5,6,7-tetrahydro-indazol-1-yl]-acetic acid] | 97.5
O=C(O)Cn1ncc2c1CCC[C@H]2NS(=O)(=O)c1ccc(-c2cccc(C(F)(F)F)c2)cc1 [Example 10-25a, [(R)-4-(3′-Trifluoromethyl-biphenyl-4-sulfonylamino)-4,5,6,7-tetrahydro-indazol-1-yl]-acetic acid] | 13.1
C[Si](C)(C)c1cccc(-c2ccc(S(=O)(=O)N[C@@H]3CCCc4c3cnn4CC(=O)O)cc2)c1 [Example 10-26a, [(R)-4-(3′-Trimethylsilanyl-biphenyl-4-sulfonylamino)-4,5,6,7-tetrahydro-indazol-1-yl]-acetic acid] | 2.1
CC(C)c1cccc(-c2ccc(S(=O)(=O)N[C@@H]3CCCc4c3cnn4CC(=O)O)cc2)c1 [Example 10-27a, [(R)-4-(3′-Isopropyl-biphenyl-4-sulfonylamino)-4,5,6,7-tetrahydro-indazol-1-yl]-acetic acid] | 5.1
CS(=O)(=O)c1cccc(-c2ccc(S(=O)(=O)N[C@@H]3CCCc4c3cnn4CC(=O)O)cc2)c1 [Example 10-28a, [(R)-4-(3′-Methanesulfonyl-biphenyl-4-sulfonylamino)-4,5,6,7-tetrahydro-indazol-1-yl]-acetic acid] | 6.6
C[S+]([O-])c1cccc(-c2ccc(S(=O)(=O)N[C@@H]3CCCc4c3cnn4CC(=O)O)cc2)c1 (stereo partly drawn) [Example 10-29a, [(R)-4-(3′-Methanesulfinyl-biphenyl-4-sulfonylamino)-4,5,6,7-tetrahydro-indazol-1-yl]-acetic acid] | 27.5
O=C(O)CCn1ncc2c1CCC[C@H]2NS(=O)(=O)c1ccc(-c2cccc(C(F)(F)F)c2)cc1 [Example 10-31a, 3-[(R)-4-(3′-Trifluoromethyl-biphenyl-4-sulfonylamino)-4,5,6,7-tetrahydro-indazol-1-yl]-propionic acid] | 5.6
CN([C@@H]1CCCc2c1cnn2CC(=O)O)S(=O)(=O)c1ccc(-c2cccc(C(F)(F)F)c2)cc1 [Example 11-1a, {(R)-4-[Methyl-(3′-trifluoromethyl-biphenyl-4-sulfonyl)-amino]-4,5,6,7-tetrahydro-indazol-1-yl}-acetic acid] | 7.3
CN([C@@H]1CCCc2c1cnn2CCC(=O)O)S(=O)(=O)c1ccc(-c2cccc(C(F)(F)F)c2)cc1 [Example 11-2a, 3-{(R)-4-[Methyl-(3′-trifluoromethyl-biphenyl-4-sulfonyl)-amino]-4,5,6,7-tetrahydro-indazol-1-yl}-propionic acid] | 80.7
CN([C@@H]1CCCc2c1cnn2CC(=O)O)S(=O)(=O)c1cc(-c2ccc(F)cc2)cc(C(F)(F)F)c1 [Example 12-1a, {(R)-4-[(4′-Fluoro-5-trifluoromethyl-biphenyl-3-sulfonyl)-methyl-amino]-4,5,6,7-tetrahydro-indazol-1-yl}-acetic acid] | 130
CN([C@@H]1CCCc2c1cnn2CC(=O)O)S(=O)(=O)c1cc(C(F)(F)F)cc(S(=O)(=O)c2ccc(Cl)cc2)c1 [Example 13-1a, ((R)-4-{[3-(4-Chloro-benzenesulfonyl)-5-trifluoromethyl-benzenesulfonyl]-methylamino}-4,5,6,7-tetrahydro-indazol-1-yl)-acetic acid] | 2.9
Cc1ccc(S(=O)(=O)c2cc(C(F)(F)F)cc(S(=O)(=O)N(C)[C@@H]3CCCc4c3cnn4CC(=O)O)c2)cc1 [Example 13-2a, ((R)-4-{Methyl-[3-(toluene-4-sulfonyl)-5-trifluoromethyl-benzenesulfonyl]-amino}-4,5,6,7-tetrahydro-indazol-1-yl)-acetic acid] | 2.7
CN([C@@H]1CCCc2c1cnn2CCC(=O)O)S(=O)(=O)c1cc(C(F)(F)F)cc(S(=O)(=O)c2ccc(F)cc2)c1 [Example 13-3a, 3-((R)-4-{[3-(4-Fluoro-benzenesulfonyl)-5-trifluoromethyl-benzenesulfonyl]-methyl-amino}-4,5,6,7-tetrahydro-indazol-1-yl)-propionic acid] | 4
CN([C@@H]1CCCc2c1cnn2CCC(=O)O)S(=O)(=O)c1cc(C(F)(F)F)cc(S(=O)(=O)c2ccc(Cl)cc2)c1 [Example 13-4a, 3-((R)-4-{[3-(4-Chloro-benzenesulfonyl)-5-trifluoromethyl-benzenesulfonyl]-methyl-amino}-4,5,6,7-tetrahydro-indazol-1-yl)-propionic acid] | 2.5
COc1ccc(S(=O)(=O)c2cc(C(F)(F)F)cc(S(=O)(=O)N(C)[C@@H]3CCCc4c3cnn4CCC(=O)O)c2)cc1 [Example 13-5a, 3-((R)-4-{[3-(4-Methoxy-benzenesulfonyl)-5-trifluoromethyl-benzenesulfonyl]-methyl-amino}-4,5,6,7-tetrahydro-indazol-1-yl)-propionic acid] | 5.8
Cc1ccc(S(=O)(=O)c2cc(C(F)(F)F)cc(S(=O)(=O)N(C)[C@@H]3CCCc4c3cnn4CCC(=O)O)c2)cc1 [Example 13-6a, 3-((R)-4-{Methyl-[3-(toluene-4-sulfonyl)-5-trifluoromethyl-benzenesulfonyl]-amino}-4,5,6,7-tetrahydro-indazol-1-yl)-propionic acid] | 7.8
O=C(O)Cn1ncc2c1CCCC2NS(=O)(=O)c1cccc(NC(=O)c2ccccc2)c1 (centres unmarked) [Example 14-1a, [4-(3-Benzoylamino-benzenesulfonylamino)-4,5,6,7-tetrahydro-indazol-1-yl]-acetic acid] | 356
O=C(O)Cn1ncc2c1CCCC2NS(=O)(=O)c1cccc(NS(=O)(=O)c2ccccc2)c1 (centres unmarked) [Example 15-1a, [4-(3-Benzenesulfonylamino-benzenesulfonylamino)-4,5,6,7-tetrahydro-indazol-1-yl]-acetic acid] | 360
